According to PMC12136037, “Type II kinase inhibitors that target Parkinson’s disease–associated LRRK2” (Science Advances, 2025):

Assays:
Test in all cases: 33PanQinase kinome-wide selectivity profile (Reaction Biology)
Format in all cases: biochemical
350 wild-type kinases [1] = target: T1, 350 wild-type kinases (Homo sapiens, UniProt Q00526); conditions: ATP 3 µM, singlicate; for Residual activity (% of control), CDK3/CycC: kinase CDK3/CycC; for Residual activity (% of control), CDK3/CycE1: kinase CDK3/CycE1
T1 construct: purchased Reaction Biology (assay service)
T1 sequence (Q00526 whole entry): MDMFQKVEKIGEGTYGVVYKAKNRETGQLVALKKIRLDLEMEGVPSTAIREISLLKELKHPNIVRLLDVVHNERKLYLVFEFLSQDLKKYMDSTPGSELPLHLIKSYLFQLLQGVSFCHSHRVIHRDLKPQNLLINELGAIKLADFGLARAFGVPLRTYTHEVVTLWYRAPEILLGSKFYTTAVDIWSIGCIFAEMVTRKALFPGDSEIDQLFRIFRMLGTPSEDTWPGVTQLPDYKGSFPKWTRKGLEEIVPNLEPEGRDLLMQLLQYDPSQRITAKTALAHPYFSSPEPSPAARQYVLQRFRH
Description: (§1) Compound RN341 was tested at two concentrations of 1 and 10 μM against a panel of 350 wild-type kinases in the ^33PanQinase assay. The assay was performed by Reaction Biology (www.reactionbiology.com/services/kinase-assays/kinase-panel-screening/).

350 wild-type kinases [2] = target: T2, 350 wild-type kinases (Homo sapiens, UniProt O00311); conditions: kinase CDC7/DBF4, ATP 0,1 µM, singlicate
T2 construct: purchased Reaction Biology (assay service)
Description: as §1

350 wild-type kinases [3] = target: T3, 350 wild-type kinases (Homo sapiens, UniProt Q13555); conditions: kinase CAMK2G, ATP 1 µM, singlicate
T3 construct: purchased Reaction Biology (assay service)
Description: as §1

350 wild-type kinases [4] = target: T4, 350 wild-type kinases (Homo sapiens, UniProt P50750); conditions: singlicate; for Residual activity (% of control), CDK9/CycK: kinase CDK9/CycK, ATP 1 µM; for Residual activity (% of control), CDK9/CycT1: kinase CDK9/CycT1, ATP 0,3 µM
T4 construct: purchased Reaction Biology (assay service)
T4 sequence (P50750 whole entry): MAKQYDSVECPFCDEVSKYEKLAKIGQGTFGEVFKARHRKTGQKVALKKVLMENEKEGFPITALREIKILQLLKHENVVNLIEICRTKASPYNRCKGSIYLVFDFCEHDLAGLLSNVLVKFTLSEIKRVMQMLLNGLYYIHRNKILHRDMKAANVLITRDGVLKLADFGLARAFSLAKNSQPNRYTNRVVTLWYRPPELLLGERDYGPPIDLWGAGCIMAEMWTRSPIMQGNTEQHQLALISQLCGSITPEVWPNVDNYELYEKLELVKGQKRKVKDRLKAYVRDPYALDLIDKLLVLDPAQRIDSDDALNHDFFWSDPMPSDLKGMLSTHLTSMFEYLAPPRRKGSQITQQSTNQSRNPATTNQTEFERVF
Description: as §1

350 wild-type kinases [5] = target: T5, 350 wild-type kinases (Homo sapiens, UniProt P51451); conditions: kinase BLK, ATP 0,3 µM, singlicate
T5 construct: purchased Reaction Biology (assay service)
Description: as §1

350 wild-type kinases [6] = target: T6, 350 wild-type kinases (Homo sapiens, UniProt Q13557); conditions: kinase CAMK2D, ATP 1 µM, singlicate
T6 construct: purchased Reaction Biology (assay service)
T6 sequence (Q13557 whole entry): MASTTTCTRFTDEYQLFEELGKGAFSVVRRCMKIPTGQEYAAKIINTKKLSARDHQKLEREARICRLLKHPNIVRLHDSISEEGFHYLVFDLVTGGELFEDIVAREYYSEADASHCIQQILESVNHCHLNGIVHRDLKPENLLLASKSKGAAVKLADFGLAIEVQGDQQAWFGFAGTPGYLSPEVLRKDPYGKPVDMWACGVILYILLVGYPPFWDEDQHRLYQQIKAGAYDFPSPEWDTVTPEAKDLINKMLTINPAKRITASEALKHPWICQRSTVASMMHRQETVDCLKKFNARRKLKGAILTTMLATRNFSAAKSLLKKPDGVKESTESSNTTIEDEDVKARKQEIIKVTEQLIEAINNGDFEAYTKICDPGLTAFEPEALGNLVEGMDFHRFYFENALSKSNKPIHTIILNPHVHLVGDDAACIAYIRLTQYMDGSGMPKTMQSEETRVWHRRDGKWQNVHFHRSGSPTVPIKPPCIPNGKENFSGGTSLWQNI
Description: as §1

350 wild-type kinases [7] = target: T7, 350 wild-type kinases (Homo sapiens, UniProt Q04771); conditions: kinase ACVR1, ATP 3 µM, singlicate
T7 construct: purchased Reaction Biology (assay service)
T7 sequence (Q04771 21-509): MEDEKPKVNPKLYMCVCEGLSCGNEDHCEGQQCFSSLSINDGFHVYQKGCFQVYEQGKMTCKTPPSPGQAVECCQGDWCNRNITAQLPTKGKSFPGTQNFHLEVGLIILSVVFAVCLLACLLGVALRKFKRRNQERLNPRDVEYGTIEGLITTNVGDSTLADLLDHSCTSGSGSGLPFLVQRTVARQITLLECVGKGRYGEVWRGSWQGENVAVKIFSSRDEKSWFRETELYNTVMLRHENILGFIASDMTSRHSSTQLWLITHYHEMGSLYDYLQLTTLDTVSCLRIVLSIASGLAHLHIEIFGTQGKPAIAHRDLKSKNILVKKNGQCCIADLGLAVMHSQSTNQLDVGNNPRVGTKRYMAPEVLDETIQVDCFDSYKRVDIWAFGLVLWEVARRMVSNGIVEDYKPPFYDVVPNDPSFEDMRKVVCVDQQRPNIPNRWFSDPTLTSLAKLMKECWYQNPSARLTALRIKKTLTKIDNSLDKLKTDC
Description: as §1

350 wild-type kinases [8] = target: T8, 350 wild-type kinases (Homo sapiens, UniProt Q07002); conditions: kinase CDK18/CycY, ATP 1 µM, singlicate
T8 construct: purchased Reaction Biology (assay service)
Description: as §1

350 wild-type kinases [9] = target: T9, 350 wild-type kinases (Homo sapiens, UniProt Q13705); conditions: kinase ACVR2B, ATP 1 µM, singlicate
T9 construct: purchased Reaction Biology (assay service)
Description: as §1

350 wild-type kinases [10] = target: T10, 350 wild-type kinases (Homo sapiens, UniProt Q00536); conditions: kinase CDK16/CycY, ATP 0,3 µM, singlicate
T10 construct: purchased Reaction Biology (assay service)
T10 sequence (Q00536 whole entry): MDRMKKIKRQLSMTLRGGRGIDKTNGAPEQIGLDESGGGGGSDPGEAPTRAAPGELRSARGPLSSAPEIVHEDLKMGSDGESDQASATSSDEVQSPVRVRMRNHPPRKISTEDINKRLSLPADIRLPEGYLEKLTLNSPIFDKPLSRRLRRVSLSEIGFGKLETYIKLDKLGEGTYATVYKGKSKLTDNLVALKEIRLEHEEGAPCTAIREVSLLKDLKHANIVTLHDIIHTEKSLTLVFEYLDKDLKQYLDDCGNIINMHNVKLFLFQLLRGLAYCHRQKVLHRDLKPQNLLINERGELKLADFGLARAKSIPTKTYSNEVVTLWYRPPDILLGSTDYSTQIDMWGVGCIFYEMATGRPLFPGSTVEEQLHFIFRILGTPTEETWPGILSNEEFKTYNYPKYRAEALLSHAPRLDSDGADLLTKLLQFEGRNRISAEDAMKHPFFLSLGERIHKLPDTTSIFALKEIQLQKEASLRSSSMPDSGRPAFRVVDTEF
Description: as §1

350 wild-type kinases [11] = target: T11, 350 wild-type kinases (Homo sapiens, UniProt Q15131); conditions: kinase CDK10/CycQ, ATP 3 µM, singlicate
T11 construct: purchased Reaction Biology (assay service)
Description: as §1

350 wild-type kinases [12] = target: T12, 350 wild-type kinases (Homo sapiens, UniProt Q00534); conditions: singlicate; for Residual activity (% of control), CDK6/CycD1: kinase CDK6/CycD1, ATP 3 µM; for Residual activity (% of control), CDK6/CycD2: kinase CDK6/CycD2, ATP 10 µM; for Residual activity (% of control), CDK6/CycD3: kinase CDK6/CycD3, ATP 30 µM
T12 construct: purchased Reaction Biology (assay service)
T12 sequence (Q00534 whole entry): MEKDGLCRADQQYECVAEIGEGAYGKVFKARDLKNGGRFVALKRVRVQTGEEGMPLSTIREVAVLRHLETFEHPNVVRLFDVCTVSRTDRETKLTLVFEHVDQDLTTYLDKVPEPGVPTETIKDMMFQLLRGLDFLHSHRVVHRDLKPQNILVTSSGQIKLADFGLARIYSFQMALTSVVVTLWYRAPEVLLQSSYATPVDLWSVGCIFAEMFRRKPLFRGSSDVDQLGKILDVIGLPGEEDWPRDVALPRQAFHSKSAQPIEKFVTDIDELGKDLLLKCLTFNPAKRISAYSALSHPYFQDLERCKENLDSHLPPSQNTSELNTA
Description: as §1

350 wild-type kinases [13] = target: T13, 350 wild-type kinases (Homo sapiens, UniProt Q9Y5S2); conditions: kinase CDC42BPB, ATP 0,1 µM, singlicate
T13 construct: purchased Reaction Biology (assay service)
Description: as §1

350 wild-type kinases [14] = target: T14, 350 wild-type kinases (Homo sapiens, UniProt P19784); conditions: kinase CK2alpha2, ATP 0,1 µM, singlicate
T14 construct: purchased Reaction Biology (assay service)
T14 sequence (P19784 whole entry): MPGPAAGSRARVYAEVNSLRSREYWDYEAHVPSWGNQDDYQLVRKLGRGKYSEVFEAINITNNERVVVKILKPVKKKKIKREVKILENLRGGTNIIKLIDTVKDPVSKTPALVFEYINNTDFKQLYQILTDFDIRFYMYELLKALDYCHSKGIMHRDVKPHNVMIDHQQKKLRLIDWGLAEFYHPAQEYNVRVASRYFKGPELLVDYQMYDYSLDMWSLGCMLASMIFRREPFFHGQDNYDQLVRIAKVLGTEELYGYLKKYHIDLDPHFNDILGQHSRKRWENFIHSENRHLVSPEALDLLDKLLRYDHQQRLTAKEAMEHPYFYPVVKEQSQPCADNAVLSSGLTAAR
Description: as §1

350 wild-type kinases [15] = target: T15, 350 wild-type kinases (Homo sapiens, UniProt Q13627); conditions: kinase DYRK1A, ATP 1 µM, singlicate
T15 construct: purchased Reaction Biology (assay service)
Description: as §1

350 wild-type kinases [16] = target: T16, 350 wild-type kinases (Homo sapiens, UniProt Q00535); conditions: singlicate; for Residual activity (% of control), CDK5/p25NCK: kinase CDK5/p25NCK, ATP 0,3 µM; for Residual activity (% of control), CDK5/p35NCK: kinase CDK5/p35NCK, ATP 0,1 µM
T16 construct: purchased Reaction Biology (assay service)
T16 sequence (Q00535 whole entry): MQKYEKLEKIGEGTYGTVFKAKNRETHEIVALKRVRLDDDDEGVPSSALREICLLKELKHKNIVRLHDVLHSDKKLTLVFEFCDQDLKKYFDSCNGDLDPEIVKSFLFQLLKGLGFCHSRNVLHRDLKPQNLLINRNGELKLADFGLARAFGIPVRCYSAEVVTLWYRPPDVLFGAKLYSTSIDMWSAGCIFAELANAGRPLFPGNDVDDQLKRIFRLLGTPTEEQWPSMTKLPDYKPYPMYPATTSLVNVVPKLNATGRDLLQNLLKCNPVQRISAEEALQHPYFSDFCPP
Description: as §1

350 wild-type kinases [17] = target: T17, 350 wild-type kinases (Homo sapiens, UniProt P11802); conditions: singlicate; for Residual activity (% of control), CDK4/CycD1: kinase CDK4/CycD1; for Residual activity (% of control), CDK4/CycD1 / Residual activity (% of control), CDK4/CycD2: ATP 3 µM; for Residual activity (% of control), CDK4/CycD2: kinase CDK4/CycD2; for Residual activity (% of control), CDK4/CycD3: kinase CDK4/CycD3, ATP 10 µM
T17 construct: purchased Reaction Biology (assay service)
T17 sequence (P11802 whole entry): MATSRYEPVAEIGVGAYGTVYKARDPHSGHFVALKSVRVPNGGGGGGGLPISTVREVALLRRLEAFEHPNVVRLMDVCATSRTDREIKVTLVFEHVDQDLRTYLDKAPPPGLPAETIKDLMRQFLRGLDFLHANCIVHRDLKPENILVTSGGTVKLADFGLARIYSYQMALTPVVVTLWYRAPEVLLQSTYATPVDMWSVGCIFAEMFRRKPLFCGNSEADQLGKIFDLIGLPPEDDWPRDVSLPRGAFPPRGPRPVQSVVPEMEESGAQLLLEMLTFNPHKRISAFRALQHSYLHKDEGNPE
Description: as §1

350 wild-type kinases [18] = target: T18, 350 wild-type kinases (Homo sapiens, UniProt P49674); conditions: kinase CK1epsilon, ATP 0,3 µM, singlicate
T18 construct: purchased Reaction Biology (assay service)
T18 sequence (P49674 whole entry): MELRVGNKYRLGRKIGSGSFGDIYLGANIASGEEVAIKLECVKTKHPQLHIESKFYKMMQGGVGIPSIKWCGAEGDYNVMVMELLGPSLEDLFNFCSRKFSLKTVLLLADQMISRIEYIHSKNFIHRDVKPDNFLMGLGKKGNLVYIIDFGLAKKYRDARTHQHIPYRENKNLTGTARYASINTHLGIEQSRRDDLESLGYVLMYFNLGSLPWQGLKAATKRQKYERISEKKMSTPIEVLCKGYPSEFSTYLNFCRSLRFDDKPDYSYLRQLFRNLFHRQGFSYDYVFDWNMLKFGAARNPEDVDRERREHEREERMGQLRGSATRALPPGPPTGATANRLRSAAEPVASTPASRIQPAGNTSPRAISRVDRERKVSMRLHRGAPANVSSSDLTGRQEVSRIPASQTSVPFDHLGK
Description: as §1

350 wild-type kinases [19] = target: T19, 350 wild-type kinases (Homo sapiens, UniProt Q96RR4); conditions: kinase CAMKK2, ATP 3 µM, singlicate
T19 construct: purchased Reaction Biology (assay service)
Description: as §1

350 wild-type kinases [20] = target: T20, 350 wild-type kinases (Homo sapiens, UniProt P36894); conditions: kinase BMPR1A, ATP 3 µM, singlicate
T20 construct: purchased Reaction Biology (assay service)
T20 sequence (P36894 24-532): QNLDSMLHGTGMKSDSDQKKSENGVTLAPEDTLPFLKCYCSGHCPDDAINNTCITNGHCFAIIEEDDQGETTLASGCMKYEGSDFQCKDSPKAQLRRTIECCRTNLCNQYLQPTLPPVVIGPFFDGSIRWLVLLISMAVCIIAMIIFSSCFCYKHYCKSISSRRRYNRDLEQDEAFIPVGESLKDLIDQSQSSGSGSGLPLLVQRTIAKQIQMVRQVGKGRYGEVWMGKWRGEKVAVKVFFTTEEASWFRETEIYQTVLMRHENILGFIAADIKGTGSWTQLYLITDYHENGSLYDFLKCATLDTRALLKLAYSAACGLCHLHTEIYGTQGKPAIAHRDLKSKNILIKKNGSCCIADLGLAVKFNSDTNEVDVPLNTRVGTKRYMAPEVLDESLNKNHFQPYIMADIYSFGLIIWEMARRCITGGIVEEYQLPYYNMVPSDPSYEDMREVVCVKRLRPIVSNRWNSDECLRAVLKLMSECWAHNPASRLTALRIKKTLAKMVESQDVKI
Description: as §1

350 wild-type kinases [21] = target: T21, 350 wild-type kinases (Homo sapiens, UniProt Q8IZL9); conditions: singlicate; for Residual activity (% of control), CDK20/CycH: kinase CDK20/CycH, ATP 0,1 µM; for Residual activity (% of control), CDK20/CycT1: kinase CDK20/CycT1, ATP 1 µM
T21 construct: purchased Reaction Biology (assay service)
T21 sequence (Q8IZL9 whole entry): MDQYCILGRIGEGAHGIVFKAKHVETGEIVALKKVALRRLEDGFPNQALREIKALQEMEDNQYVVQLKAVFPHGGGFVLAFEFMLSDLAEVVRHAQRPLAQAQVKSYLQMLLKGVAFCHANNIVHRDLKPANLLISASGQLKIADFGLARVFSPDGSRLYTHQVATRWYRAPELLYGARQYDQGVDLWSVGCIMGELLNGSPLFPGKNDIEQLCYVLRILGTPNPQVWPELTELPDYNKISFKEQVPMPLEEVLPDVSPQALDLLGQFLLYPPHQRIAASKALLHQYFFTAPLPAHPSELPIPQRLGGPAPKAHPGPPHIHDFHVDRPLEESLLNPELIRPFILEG
Description: as §1

350 wild-type kinases [22] = target: T22, 350 wild-type kinases (Homo sapiens, UniProt P00519); conditions: kinase ABL1, ATP 0,3 µM, singlicate
T22 construct: purchased Reaction Biology (assay service)
Description: as §1

## CCSc1nc(NC)c2c(-c3cccc(NC(=O)Nc4cc(C(C)(C)C)nn4-c4ccc(C)cc4)c3)c[nH]c2n1 [Compound 32]
350 wild-type kinases [1]; Assay Conc. 1.0E-05 M
  Residual activity (% of control), CDK3/CycC: 65 % of control
  Residual activity (% of control), CDK3/CycE1: 75 % of control
350 wild-type kinases [1]; Assay Conc. 1.0E-06 M
  Residual activity (% of control), CDK3/CycC: 106 % of control
  Residual activity (% of control), CDK3/CycE1: 115 % of control
350 wild-type kinases [2]; Assay Conc. 1.0E-05 M
  Residual activity (% of control), CDC7/DBF4: 50 % of control
350 wild-type kinases [2]; Assay Conc. 1.0E-06 M
  Residual activity (% of control), CDC7/DBF4: 89 % of control
350 wild-type kinases [3]; Assay Conc. 1.0E-05 M
  Residual activity (% of control), CAMK2G: 122 % of control
350 wild-type kinases [3]; Assay Conc. 1.0E-06 M
  Residual activity (% of control), CAMK2G: 106 % of control
350 wild-type kinases [4]; Assay Conc. 1.0E-05 M
  Residual activity (% of control), CDK9/CycK: 86 % of control
  Residual activity (% of control), CDK9/CycT1: 85 % of control
350 wild-type kinases [4]; Assay Conc. 1.0E-06 M
  Residual activity (% of control), CDK9/CycK: 111 % of control
  Residual activity (% of control), CDK9/CycT1: 106 % of control
350 wild-type kinases [5]; Assay Conc. 1.0E-05 M
  Residual activity (% of control), BLK: 55 % of control
350 wild-type kinases [5]; Assay Conc. 1.0E-06 M
  Residual activity (% of control), BLK: 78 % of control
350 wild-type kinases [6]; Assay Conc. 1.0E-05 M
  Residual activity (% of control), CAMK2D: 67 % of control
350 wild-type kinases [6]; Assay Conc. 1.0E-06 M
  Residual activity (% of control), CAMK2D: 104 % of control
350 wild-type kinases [7]; Assay Conc. 1.0E-05 M
  Residual activity (% of control), ACVR1: 93 % of control
350 wild-type kinases [7]; Assay Conc. 1.0E-06 M
  Residual activity (% of control), ACVR1: 107 % of control
350 wild-type kinases [8]; Assay Conc. 1.0E-05 M
  Residual activity (% of control), CDK18/CycY: 73 % of control
350 wild-type kinases [8]; Assay Conc. 1.0E-06 M
  Residual activity (% of control), CDK18/CycY: 110 % of control
350 wild-type kinases [9]; Assay Conc. 1.0E-05 M
  Residual activity (% of control), ACVR2B: 98 % of control
350 wild-type kinases [9]; Assay Conc. 1.0E-06 M
  Residual activity (% of control), ACVR2B: 123 % of control
350 wild-type kinases [10]; Assay Conc. 1.0E-05 M
  Residual activity (% of control), CDK16/CycY: 88 % of control
350 wild-type kinases [10]; Assay Conc. 1.0E-06 M
  Residual activity (% of control), CDK16/CycY: 113 % of control
350 wild-type kinases [11]; Assay Conc. 1.0E-05 M
  Residual activity (% of control), CDK10/CycQ: 71 % of control
350 wild-type kinases [11]; Assay Conc. 1.0E-06 M
  Residual activity (% of control), CDK10/CycQ: 98 % of control
350 wild-type kinases [12]; Assay Conc. 1.0E-05 M
  Residual activity (% of control), CDK6/CycD1: 74 % of control
  Residual activity (% of control), CDK6/CycD2: 80 % of control
  Residual activity (% of control), CDK6/CycD3: 73 % of control
350 wild-type kinases [12]; Assay Conc. 1.0E-06 M
  Residual activity (% of control), CDK6/CycD1: 127 % of control
  Residual activity (% of control), CDK6/CycD2: 109 % of control
  Residual activity (% of control), CDK6/CycD3: 94 % of control
350 wild-type kinases [13]; Assay Conc. 1.0E-05 M
  Residual activity (% of control), CDC42BPB: 57 % of control
350 wild-type kinases [13]; Assay Conc. 1.0E-06 M
  Residual activity (% of control), CDC42BPB: 84 % of control
350 wild-type kinases [14]; Assay Conc. 1.0E-05 M
  Residual activity (% of control), CK2alpha2: 92 % of control
350 wild-type kinases [14]; Assay Conc. 1.0E-06 M
  Residual activity (% of control), CK2alpha2: 101 % of control
350 wild-type kinases [15]; Assay Conc. 1.0E-05 M
  Residual activity (% of control), DYRK1A: 48 % of control
350 wild-type kinases [15]; Assay Conc. 1.0E-06 M
  Residual activity (% of control), DYRK1A: 75 % of control
350 wild-type kinases [16]; Assay Conc. 1.0E-05 M
  Residual activity (% of control), CDK5/p25NCK: 66 % of control
  Residual activity (% of control), CDK5/p35NCK: 76 % of control
350 wild-type kinases [16]; Assay Conc. 1.0E-06 M
  Residual activity (% of control), CDK5/p25NCK: 95 % of control
  Residual activity (% of control), CDK5/p35NCK: 94 % of control
350 wild-type kinases [17]; Assay Conc. 1.0E-05 M
  Residual activity (% of control), CDK4/CycD1: 57 % of control
  Residual activity (% of control), CDK4/CycD2: 49 % of control
  Residual activity (% of control), CDK4/CycD3: 87 % of control
350 wild-type kinases [17]; Assay Conc. 1.0E-06 M
  Residual activity (% of control), CDK4/CycD1: 87 % of control
  Residual activity (% of control), CDK4/CycD2: 111 % of control
  Residual activity (% of control), CDK4/CycD3: 102 % of control
350 wild-type kinases [18]; Assay Conc. 1.0E-05 M
  Residual activity (% of control), CK1epsilon: 74 % of control
350 wild-type kinases [18]; Assay Conc. 1.0E-06 M
  Residual activity (% of control), CK1epsilon: 97 % of control
350 wild-type kinases [19]; Assay Conc. 1.0E-05 M
  Residual activity (% of control), CAMKK2: 85 % of control
350 wild-type kinases [19]; Assay Conc. 1.0E-06 M
  Residual activity (% of control), CAMKK2: 119 % of control
350 wild-type kinases [20]; Assay Conc. 1.0E-05 M
  Residual activity (% of control), BMPR1A: 85 % of control
350 wild-type kinases [20]; Assay Conc. 1.0E-06 M
  Residual activity (% of control), BMPR1A: 97 % of control
350 wild-type kinases [21]; Assay Conc. 1.0E-05 M
  Residual activity (% of control), CDK20/CycH: 87 % of control
  Residual activity (% of control), CDK20/CycT1: 84 % of control
350 wild-type kinases [21]; Assay Conc. 1.0E-06 M
  Residual activity (% of control), CDK20/CycH: 103 % of control
  Residual activity (% of control), CDK20/CycT1: 99 % of control
350 wild-type kinases [22]; Assay Conc. 1.0E-05 M
  Residual activity (% of control), ABL1: 70 % of control
350 wild-type kinases [22]; Assay Conc. 1.0E-06 M
  Residual activity (% of control), ABL1: 102 % of control
